Laboratory results from ChEMBL document CHEMBL4819101, “Design, synthesis and molecular docking studies of thymol based 1,2,3-triazole hybrids as thymidylate synthase inhibitors and apoptosis inducers against breast cancer cells” (Bioorg Med Chem, 2021).

Legend:
MCF7 [1] = assay: Potency index, ratio of 5-fluorouracil IC50 to test compound IC50 for cytotoxicity against human MCF7 cells assessed as cell growth inhibition incubated for 72 hrs by MTT assay; assay type: functional
MDA-MB-231 [2] = assay: cells; conditions: Homo sapiens, MDA-MB-231, 72 h
Description: Cytotoxicity against human MDA-MB-231 cells assessed as cell growth inhibition incubated for 72 hrs by MTT assay

MCF7 [3] = assay: cells; conditions: Homo sapiens, MCF7, 72 h
Description: Cytotoxicity against human MCF7 cells assessed as cell growth inhibition incubated for 72 hrs by MTT assay

MDA-MB-231 [4] = assay: Potency index, ratio of 5-fluorouracil IC50 to test compound IC50 for cytotoxicity against human MDA-MB-231 cells assessed as cell growth inhibition incubated for 72 hrs by MTT assay; assay type: functional
MDA-MB-231 [5] = assay: Potency index, ratio of tamoxifen IC50 to test compound IC50 for cytotoxicity against human MDA-MB-231 cells assessed as cell growth inhibition incubated for 72 hrs by MTT assay; assay type: functional
Thymidylate synthase [6] = target: T1, Thymidylate synthase (Homo sapiens, UniProt P04818); assay: Inhibition of human thymidylate synthase expressed in Escherichia coli using 6R,S-tetrahydrofolate and dUMP as substrate by spectrophotometric analysis
Thymidylate synthase [7] = target: T1, Thymidylate synthase; assay: Inhibition of thymidylate synthase (unknown origin)
MCF7 [8] = assay: Induction of cell cycle arrest in human MCF7 cells assessed as accumulation at sub-G1 phase at 10 uM incubated for 48 hrs by PI staining based flow cytometry analysis (reference value: 3.7 %); assay type: functional
MCF7 [9] = assay: Induction of cell cycle arrest in human MCF7 cells assessed as increase in accumulation at G2/M phase at 10 uM incubated for 48 hrs by PI staining based flow cytometry analysis relative to control; assay type: functional
HEK293 = assay: Cytotoxicity against human HEK293 cells assessed as cell growth inhibition incubated for 72 hrs by MTT assay; assay type: cell-based; conditions: HEK293, 72 h
MCF7 [10] = assay: Induction of apoptosis in human MCF7 cells assessed as total apoptotic cells at 10 uM incubated for 48 hrs by annexin-V-FITC and PI staining based flow cytometry analysis (reference value: 8.3 %); assay type: functional

T1 sequence (P04818 whole entry): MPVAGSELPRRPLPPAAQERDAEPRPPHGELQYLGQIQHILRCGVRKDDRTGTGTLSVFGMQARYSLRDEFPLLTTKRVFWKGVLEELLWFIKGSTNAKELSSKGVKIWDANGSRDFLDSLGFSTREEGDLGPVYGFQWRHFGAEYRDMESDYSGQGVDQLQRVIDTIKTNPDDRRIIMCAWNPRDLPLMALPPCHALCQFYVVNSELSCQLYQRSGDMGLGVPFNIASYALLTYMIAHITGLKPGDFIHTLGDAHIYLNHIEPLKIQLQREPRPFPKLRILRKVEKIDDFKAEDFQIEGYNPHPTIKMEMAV

Row | Structure (SMILES) | IC50 (MDA-MB-231 [2]) | IC50 (MCF7 [3]) | further results
1 | Cc1ccc(C(C)C)c(OCc2cn(-c3ccccc3Cl)nn2)c1 | 26.6 µM | 15.6 µM | Ratio IC50 (MCF7 [1]): 1.2
2 | Cc1ccc(C(C)C)c(OCc2cn(-c3ccc(O)cc3)nn2)c1 | 30.4 µM | 45.4 µM | 
3 | Cc1ccc(C(C)C)c(OCc2cn(-c3cccc(C(=O)O)c3)nn2)c1 | 11.4 µM | 10.3 µM | Ratio IC50 (MCF7 [1]): 1.95; Ratio IC50 (MDA-MB-231 [4]): 2.2; Ratio IC50 (MDA-MB-231 [5]): 1.3; IC50 (Thymidylate synthase [6]): 4.27 µM
4 | O=c1[nH]cc(F)c(=O)[nH]1 [FLUOROURACIL] | 25.3 µM | 20.1 µM | 
5 | CCOC(=O)C1CCC(c2ccccc2)N1C(=O)c1cn(CCCNC(=O)C(F)(F)F)nn1 (stereo not given) |  |  | IC50 (Thymidylate synthase [7]): 0.057 µM
6 | Cc1ccc(C(C)C)c(OCc2cn(-c3ccccc3C)nn2)c1 | 10.5 µM | 6.17 µM | Ratio IC50 (MCF7 [1]): 3.2; Activity (MCF7 [8]): 21.4%; Activity (MCF7 [9]): 37.3%; IC50 (HEK293): > 50 µM; Ratio IC50 (MDA-MB-231 [5]): 1.42; Activity (MCF7 [10]): 29.4%; IC50 (Thymidylate synthase [6]): 2.21 µM
7 | Cc1ccc(C(C)C)c(OCc2cn(-c3cccc(Cl)c3)nn2)c1 | 45.2 µM | 32.1 µM | 
8 | CC/C(=C(\c1ccccc1)c1ccc(OCCN(C)C)cc1)c1ccccc1 [TAMOXIFEN] | 15 µM | 5.62 µM | 
9 | Cc1cccc(-n2cc(COc3cc(C)ccc3C(C)C)nn2)c1 | 31.2 µM | 28.1 µM | 
10 | Nc1nc2[nH]cc(CCc3ccc(C(=O)N[C@@H](CCC(=O)O)C(=O)O)cc3)c2c(=O)[nH]1 [PEMETREXED] |  |  | IC50 (Thymidylate synthase [6]): 5.39 µM
11 | COc1ccc(-n2cc(COc3cc(C)ccc3C(C)C)nn2)cc1 | 45.3 µM | 25.4 µM | 
12 | Cc1ccc(C(C)C)c(OCc2cn(-c3ccc(F)cc3)nn2)c1 | 32.6 µM | 22.1 µM | 
13 | Cc1ccc(C(C)C)c(OCc2cn(-c3ccc([N+](=O)[O-])cc3)nn2)c1 | 41 µM | 32.2 µM | 
14 | Cc1ccc(C(C)C)c(OCc2cn(-c3ccccc3)nn2)c1 | 45.1 µM | 29.9 µM | 
15 | Cc1ccc(C(C)C)c(OCc2cn(-c3cccc4c(-n5cc(COc6cc(C)ccc6C(C)C)nn5)cccc34)nn2)c1 | 22.1 µM | 18.1 µM | 
